Measured values taken from patent US20130216631A1, “TARGETED PERFORMANCE OF HYPOHALITE COMPOSITIONS THEREOF” (The Clorox Company, priority 2012, published 2013).

Assay: Percentage of initial hypochlorite remaining over time after mixing oxidant and reductant
Assay type: physicochemical
Settings: any pH below 12
Description: The amount of available halogen oxidant in the composition may be determined by placing samples of the composition into about 50 milliliters of distilled water, followed by addition of about 10 milliliters of a 10 wt % solution of potassium iodide and addition of about 10 milliliters of a 10 volume % solution of sulfuric acid, the resulting mixture being well stirred. The resulting yellow to brown solution, whose color is the result of oxidation of […] (I^−) to molecular iodine (I2), is then volumetrically titrated to an essentially colorless endpoint by addition of standardized 0.1 Molar sodium thiosulfate (Na2S2O3) titrant. […] Stability results are then expressed by repeated assays over time using identically prepared samples resulting from the same composition, normalized to 100 percent representative of the starting available chlorine measured initially.
Alternatively, at lower concentrations of hypochlorite, generally below about 2,000 ppm or 0.2 wt %, spectroscopic measurement of the absorption of aqueous solutions may be used to monitor the concentration, and resulting changes, of the hypochlorous acid species in solution. […] By use of controls, the relative level of hypochlorite can then be monitored and calculated by measuring absorbance of solutions by means of a suitable instrument, such as a spectrophotometer. […]

- reaction of reductant with hypochlorite (quench rate): reacts almost instantly
SMILES: O=C(O)CN(CCN(CC(=O)O)CC(=O)O)CC(=O)O [EDTA, ethylene diamine tetra-acetic acid]
